{
  "source": "patent US4767749A",
  "about": "“Ester of (triarylphosphoranylidene)carbamic acid having diuretic and ability to lower plasma renin properties” (American Cyanamid Company, priority 1986, dated 1988)",
  "key": {"[1]": {"system": "cardiac contractility in anesthetized dogs", "experiment": "Effect on cardiac contractility in anesthetized dogs, intravenous", "format": "in vivo, dog", "details": "intravenous administration; same effect as in isolated rat heart (Table IV)"}, "plasma renin activity [2]": {"system": "plasma renin activity", "experiment": "Lowering of plasma renin activity in normal conscious rats", "format": "in vivo, male Wistar rats", "details": "single 25 mg/kg oral dose, 6 rats", "method": "Compounds were tested for their ability to lower plasma renin activity of conscious, male Wistar rats (180-200 g, Charles River Labs.). Test agents were compounded in a mortar and pestle with 3% preboiled starch suspension. Rats were dosed orally by gavage with 25 mg/kg test agent in a dose volume of 2 ml/kg. At time zero and 1/3, 1, 3 and 6 hours relative to dosing, rats were sacrificed by decapitation and the first 3 seconds of blood collected in two chilled Vacutainer® tubes (Becton-Dickinson, Rutherford, N.J.) containing 40 μl of 150 mg/ml tripotassium EDTA. Plasma fractions, obtained by centrifugation for 20 minutes at 4° C. and 3000 G, were incubated (one of each pair at 37° C., the other at 4° C.) at pH 6.8 in 50 mM phosphate buffer to produce angiotensin I. The incubates contained peptidase inhibitors to prevent angiotensin I degradation and the buffer contained one mg/ml lysozyme (Sigma Grade III) used as an antiabsorbant. The incubates were diluted 20 fold in cold Tris buffer (pH adjusted to 7.4 with glacial acetic acid) also containing one mg/ml lysozyme, and then frozen. Diluted incubates were assayed within 3 days for angiotensin I content by radioimmunoassay according to a modification of the method of Haber, et al., J. Clin. Endocrin., 29, 1349-1355 (1969). Renin activity is calculated as the rate of production of angiotensin I (nanograms of angiotensin I/ml plasma/hour at 37° C.) less controls (rate at 4° C.)."}, "isolated rat hearts": {"system": "isolated rat hearts", "experiment": "Cardiodynamic effects in the isolated perfused rat heart preparation", "details": "for activation at 1 µg/mL / activation at 4 µg/mL / activation at 8 µg/mL: Rattus norvegicus; for HR (mean % change): rate of cardiac contraction", "method": "The effect of (triphenylphospharnylidene)carbamic acid, ethyl ester on cardiac contractility was determined by the following test.\nIsolated rat hearts were prepared and perfused essentially as described by Neely and Rovetto, Techniques for perfusing isolated rat hearts., in Methods of Enzymology, 24, part D, 43-60 (1975), J. G. Hardman and B. W. O'Malley (eds.), Academic Press, New York, N.Y. The hearts were cooled in ice cold saline and transferred to a Langendorff apparatus and perfused in a retrograde fashion with oxygenated Krebs-Henseleit buffer at 37° C. A 2-0 silk thread was secured to the left ventricular apex and run via pulleys to a force displacement transducer (Grass Instrument Co., model FT03C). Force of contraction (F), the first derivative of force with respect to time (dF/dt), and rate of cardiac contraction (HR) were monitored on a polygraph recorder (Grass Instrument Co., model 7D).\nThe perfusion medium was a modified Krebs-Henseleit buffer of the following composition:\nThis medium was equilibrated with 95% oxygen:5% carbon dioxide at 37° C.\n(Triphenylphosphoranylidene)carbamic acid, ethyl ester was dissolved in absolute ethanol at a concentration of 10 mg/ml and then diluted with Krebs-Henseleit buffer to the required stock concentration. The stock solution was infused at a constant rate by a syringe pump into the flow of buffer presented to the isolated heart at a rate necessary to achieve the desired final concentration."}, "plasma renin activity [3]": {"system": "plasma renin activity", "experiment": "Inhibition of evoked (drug-induced) elevation of plasma renin activity in conscious rats", "format": "in vivo, male Wistar rats", "details": "Rattus norvegicus, 30 min before provocative treatment", "method": "Inhibition of evoked increase of plasma renin activity was determined by the following test.\nCompounds were tested for their ability to prevent drug-induced elevation of plasma renin activity (PRA) in concious, male Wistar rats (180-200 g, Charles River Lab.). PRA elevation was induced by a combined oral provacative treatment (C) of hydrochlorothiazide (10 mg/kg) and 1-(3-benzoyl-3-mercapto-2-methylpropionyl)-L-proline, acetate (U.S. Pat. No. 4,226,775) (one mg/kg), prepared by compounding in a mortar and pestle with preboiled 3% starch suspension. This treatment provided the daily maximum PRA. The daily minimum PRA was obtained from rats given oral starch suspension (S) alone. The magnitude of drug effect on PRA elevation was ascertained from rats pretreated orally with test agent (D), at the indicated doses, 30 minutes prior to administration of provacative treatment (C). The test agent was also compounded in preboiled 3% starch suspension. The dose volumes for both pretreatment and provocative treatment were 2 ml/kg. One hour after provocative treatment the rats were sacrificed by decapitation and the first 3 seconds of blood collected in two chilled Vacutainer® tubes (Becton-Dickinson, Rutherford, N.J.) containing 40 μl of 150 mg/ml tripotassium EDTA. The plasma fractions, obtained by centrifugation for 20 minutes at 4° C. and 3000 G, were incubated (one of each pair at 37° C., the other at 4° C.) at pH 6.8 in 50 mM phosphate buffer to produce angiotensin I. The incubates contained peptidase inhibitors to prevent angiotensin I degradation and the incubation buffer contained one mg/ml lysozyme (Sigma Grade III) used as an antiabsorbant. The incubates were diluted 20 fold in cold 100 mM Tris buffer (pH adjusted to 7.4 with glacial acetic acid) also containing one mg/ml lysozyme, and then frozen. Diluted incubates were assayed within 3 days for angiotensin I content by radioimmunoassay according to a modification of the method of Haber, et al., J. Clin. Endocrin., 29, 1349-1355 (1969).\nPRA is calculated as follows:\nPRA(ng AI/hour/ml plasma)=PRA 37° C.-PRA 4° C.\nPercent inhibition of PRA elevation is calculated as follows: [formula]"}, "[4]": {"system": "spontaneously hypertensive rats (SHR)", "experiment": "Diuretic activity in spontaneously hypertensive rats", "format": "in vivo, male spontaneously hypertensive rats (Okamoto strain)", "details": "100 mg/kg by gavage with 0.9% sodium chloride loading 25 ml/kg; 0-5 hour urine", "procedure,_shortened": "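Male Okamoto SHR (about 300 g, 16 weeks old) given test compound by gavage at 100 mg/kg, suspended in 3% preboiled starch, with 0.9% NaCl load at 25 ml/kg at zero hour. Urine collected 0–5 h in metabolism cages. Urinary sodium and potassium reported as mEq excreted.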"}},
  "note": "Like-named read-outs stand apart in the source and are kept apart here.",
  "data": [
    {"smiles": "CCOC(=O)N=P(c1ccccc1)(c1ccccc1)c1ccccc1", "note": "[(Triphenylphosphoranylidene)carbamic acid, ethyl ester]", "values": [
      {"measurement": "effect on cardiac contractility in anesthetized dogs", "setting": "[1]", "value": "The same effect has been achieved"},
      {"measurement": "% Lowering of plasma renin activity", "setting": "plasma renin activity [2]; 0 hours after dose", "value": 0, "unit": "%"},
      {"measurement": "% Lowering of plasma renin activity", "setting": "plasma renin activity [2]; 1/3 hour after dose", "value": 38, "unit": "%"},
      {"measurement": "% Lowering of plasma renin activity", "setting": "plasma renin activity [2]; 1 hour after dose", "value": 74, "unit": "%"},
      {"measurement": "% Lowering of plasma renin activity", "setting": "plasma renin activity [2]; 3 hours after dose", "value": 59, "unit": "%"},
      {"measurement": "% Lowering of plasma renin activity", "setting": "plasma renin activity [2]; 6 hours after dose", "value": 40, "unit": "%"},
      {"measurement": "activation at 1 µg/mL", "setting": "isolated rat hearts; final drug concentration 1 mg/liter, 7 hearts, read-out: Concentration Force (g) (mean % change)", "value": 5, "unit": "%"},
      {"measurement": "activation at 1 µg/mL", "setting": "isolated rat hearts; final drug concentration 1 mg/liter, 7 hearts, read-out: dF/dt (g/sec) (mean % change)", "value": 6, "unit": "%"},
      {"measurement": "activation at 4 µg/mL", "setting": "isolated rat hearts; final drug concentration 4 mg/liter, 6 hearts, read-out: Concentration Force (g) (mean % change)", "value": 18, "unit": "%"},
      {"measurement": "activation at 4 µg/mL", "setting": "isolated rat hearts; final drug concentration 4 mg/liter, 6 hearts, read-out: dF/dt (g/sec) (mean % change)", "value": 16, "unit": "%"},
      {"measurement": "activation at 8 µg/mL", "setting": "isolated rat hearts; final drug concentration 8 mg/liter, 5 hearts, read-out: Concentration Force (g) (mean % change)", "value": 24, "unit": "%"},
      {"measurement": "activation at 8 µg/mL", "setting": "isolated rat hearts; final drug concentration 8 mg/liter, 5 hearts, read-out: dF/dt (g/sec) (mean % change)", "value": 21, "unit": "%"},
      {"measurement": "HR (mean % change)", "setting": "isolated rat hearts; final drug concentration 1 mg/liter, 7 hearts", "value": -3, "unit": "mean % change"},
      {"measurement": "HR (mean % change)", "setting": "isolated rat hearts; final drug concentration 4 mg/liter, 6 hearts", "value": -2, "unit": "mean % change"},
      {"measurement": "HR (mean % change)", "setting": "isolated rat hearts; final drug concentration 8 mg/liter, 5 hearts", "value": -2, "unit": "mean % change"},
      {"measurement": "inhibition in vivo at 3 mg/kg", "setting": "plasma renin activity [3]; 3 mg/kg oral", "value": 22, "unit": "%"},
      {"measurement": "inhibition in vivo at 5 mg/kg", "setting": "plasma renin activity [3]; 5 mg/kg oral", "value": 29, "unit": "%"},
      {"measurement": "inhibition in vivo at 7 mg/kg", "setting": "plasma renin activity [3]; 7 mg/kg oral", "value": 46, "unit": "%"},
      {"measurement": "inhibition in vivo at 10 mg/kg", "setting": "plasma renin activity [3]; 10 mg/kg oral", "value": 81, "unit": "%"},
      {"measurement": "inhibition in vivo at 15 mg/kg", "setting": "plasma renin activity [3]; 15 mg/kg oral", "value": 79, "unit": "%"},
      {"measurement": "inhibition in vivo at 25 mg/kg", "setting": "plasma renin activity [3]; 25 mg/kg oral", "value": 80, "unit": "%"},
      {"measurement": "Potassium (urinary excretion)", "setting": "[4]", "value": 0.50, "unit": "mEQ/5 Hours"},
      {"measurement": "Sodium (urinary excretion)", "setting": "[4]", "value": 1.86, "unit": "mEQ/5 Hours"},
      {"measurement": "Volume (urine)", "setting": "[4]", "value": 15.5, "unit": "mL"}
    ]}
  ]
}
